Assay results taken from the supplement of paper PMC10307832.

Assays:
Experiment in all cases: relative viability (nuclei count vs DMSO), 5 days (fraction); higher = more cells survive
Avagacestat = compound: NC(=O)[C@@H](CCC(F)(F)F)N(Cc1ccc(-c2ncon2)cc1F)S(=O)(=O)c1ccc(Cl)cc1 [Avagacestat]
Method in brief: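 In 1536-well plates, lung cancer cell lines rested overnight at 37 °C before five library-drug doses (not always all listed), √10 apart, were pinned onto vehicle-anchored plates. Nuclei were counted with MetaXpress from 4× Hoechst images taken after 5 days without medium change. Viability compares treated-well with vehicle-well nuclei as a median over plates, and plates needed control CV below 25% plus at least one doubling to pass.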

Avagacestat + Luminespib = compound: NC(=O)[C@@H](CCC(F)(F)F)N(Cc1ccc(-c2ncon2)cc1F)S(=O)(=O)c1ccc(Cl)cc1 [Avagacestat] + CCNC(=O)c1noc(-c2cc(C(C)C)c(O)cc2O)c1-c1ccc(CN2CCOCC2)cc1 [Luminespib] (partner 0.01 µM)
Method in brief: (§1)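 Lung cancer cell lines, seeded in 1536-well plates, were treated the following day by pin tool with a single drug or with five library-drug doses (not always all listed) in √10 steps on top of a fixed anchor-drug dose. Cells were fixed and nuclei stained in one step after 5 days, and nuclei were counted. Relative viability is the nuclei count for treated wells divided by that for vehicle wells, reported as medians of duplicate plates.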

Avagacestat + Foretinib = compound: NC(=O)[C@@H](CCC(F)(F)F)N(Cc1ccc(-c2ncon2)cc1F)S(=O)(=O)c1ccc(Cl)cc1 [Avagacestat] + COc1cc2c(Oc3ccc(NC(=O)C4(C(=O)Nc5ccc(F)cc5)CC4)cc3F)ccnc2cc1OCCCN1CCOCC1 [Foretinib] (partner 0.25 µM)
Method in brief: as §1

Avagacestat + OSI-027 = compound: NC(=O)[C@@H](CCC(F)(F)F)N(Cc1ccc(-c2ncon2)cc1F)S(=O)(=O)c1ccc(Cl)cc1 [Avagacestat] + COc1cccc2cc(-c3nc([C@H]4CC[C@H](C(=O)O)CC4)n4ncnc(N)c34)[nH]c12 [OSI-027] (partner 0.5 µM)
Method in brief: as §1

Avagacestat + Tozasertib = compound: NC(=O)[C@@H](CCC(F)(F)F)N(Cc1ccc(-c2ncon2)cc1F)S(=O)(=O)c1ccc(Cl)cc1 [Avagacestat] + Cc1cc(Nc2cc(N3CCN(C)CC3)nc(Sc3ccc(NC(=O)C4CC4)cc3)n2)n[nH]1 [Tozasertib] (partner 0.1 µM)
Method in brief: as §1

Avagacestat + Dasatinib = compound: NC(=O)[C@@H](CCC(F)(F)F)N(Cc1ccc(-c2ncon2)cc1F)S(=O)(=O)c1ccc(Cl)cc1 [Avagacestat] + Cc1nc(Nc2ncc(C(=O)Nc3c(C)cccc3Cl)s2)cc(N2CCN(CCO)CC2)n1 [Dasatinib] (partner 0.075 µM)
Method in brief: as §1

Avagacestat + Phenformin = compound: NC(=O)[C@@H](CCC(F)(F)F)N(Cc1ccc(-c2ncon2)cc1F)S(=O)(=O)c1ccc(Cl)cc1 [Avagacestat] + N=C(N)NC(=N)NCCc1ccccc1 [Phenformin] (partner 250 µM)
Method in brief: as §1

Avagacestat + Trametinib = compound: NC(=O)[C@@H](CCC(F)(F)F)N(Cc1ccc(-c2ncon2)cc1F)S(=O)(=O)c1ccc(Cl)cc1 [Avagacestat] + CC(=O)Nc1cccc(-n2c(=O)n(C3CC3)c(=O)c3c(Nc4ccc(I)cc4F)n(C)c(=O)c(C)c32)c1 [Trametinib] (partner 0.02 µM)
Method in brief: as §1

[1] = compound: NC(=O)[C@@H](CCC(F)(F)F)N(Cc1ccc(-c2ncon2)cc1F)S(=O)(=O)c1ccc(Cl)cc1 [Avagacestat] + CC(=O)c1c(C)c2cnc(Nc3ccc(N4CCNCC4)cn3)nc2n(C2CCCC2)c1=O [Palbociclib] (partner 0.5 µM)
Method in brief: as §1

Avagacestat + AZD7762 = compound: NC(=O)[C@@H](CCC(F)(F)F)N(Cc1ccc(-c2ncon2)cc1F)S(=O)(=O)c1ccc(Cl)cc1 [Avagacestat] + NC(=O)Nc1cc(-c2cccc(F)c2)sc1C(=O)N[C@H]1CCCNC1 [AZD7762] (partner 0.2 µM)
Method in brief: as §1

Avagacestat + Pemetrexed = compound: NC(=O)[C@@H](CCC(F)(F)F)N(Cc1ccc(-c2ncon2)cc1F)S(=O)(=O)c1ccc(Cl)cc1 [Avagacestat] + Nc1nc2[nH]cc(CCc3ccc(C(=O)N[C@@H](CCC(=O)O)C(=O)O)cc3)c2c(=O)[nH]1 [Pemetrexed] (partner 0.2 µM)
Method in brief: as §1

Avagacestat + Decitabine = compound: NC(=O)[C@@H](CCC(F)(F)F)N(Cc1ccc(-c2ncon2)cc1F)S(=O)(=O)c1ccc(Cl)cc1 [Avagacestat] + Nc1ncn([C@H]2C[C@H](O)[C@@H](CO)O2)c(=O)n1 [Decitabine] (partner 2 µM)
Method in brief: as §1

Avagacestat + Vorinostat = compound: NC(=O)[C@@H](CCC(F)(F)F)N(Cc1ccc(-c2ncon2)cc1F)S(=O)(=O)c1ccc(Cl)cc1 [Avagacestat] + O=C(CCCCCCC(=O)Nc1ccccc1)NO [Vorinostat] (partner 1 µM)
Method in brief: as §1

Avagacestat + Olaparib = compound: NC(=O)[C@@H](CCC(F)(F)F)N(Cc1ccc(-c2ncon2)cc1F)S(=O)(=O)c1ccc(Cl)cc1 [Avagacestat] + O=C(c1cc(Cc2n[nH]c(=O)c3ccccc23)ccc1F)N1CCN(C(=O)C2CC2)CC1 [Olaparib] (partner 8 µM)
Method in brief: as §1

NCI-H1623 showed a relative viability (Avagacestat; 0.08 µM) of 1.02, a relative viability (Avagacestat; 0.253 µM) of 0.935 and a relative viability (Avagacestat; 0.8 µM) of 1.1. The relative viability (Avagacestat; 2.53 µM) was 0.921, the relative viability (Avagacestat; 8 µM) was 1 and the relative viability (Avagacestat + Luminespib; first compound 0.08 µM) was 0.491. The relative viability (Avagacestat + Luminespib; first compound 0.253 µM) was 0.484, the relative viability (Avagacestat + Luminespib; first compound 0.8 µM) was 0.913 and the relative viability (Avagacestat + Luminespib; first compound 2.53 µM) was 0.609. It also gave a relative viability (Avagacestat + Luminespib; first compound 8 µM) of 0.475, a relative viability (Avagacestat + Foretinib; first compound 0.08 µM) of 0.879 and a relative viability (Avagacestat + Foretinib; first compound 0.253 µM) of 0.95. For the same cell line, the relative viability (Avagacestat + Foretinib; first compound 0.8 µM) was 1.08, the relative viability (Avagacestat + Foretinib; first compound 2.53 µM) was 0.813 and the relative viability (Avagacestat + Foretinib; first compound 8 µM) was 0.86. For the same cell line, the relative viability (Avagacestat + OSI-027; first compound 0.08 µM) was 0.437, the relative viability (Avagacestat + OSI-027; first compound 0.253 µM) was 0.454 and the relative viability (Avagacestat + OSI-027; first compound 0.8 µM) was 0.508. It also gave a relative viability (Avagacestat + OSI-027; first compound 2.53 µM) of 0.424, a relative viability (Avagacestat + OSI-027; first compound 8 µM) of 0.47 and a relative viability (Avagacestat + Tozasertib; first compound 0.08 µM) of 0.448. It also gave a relative viability (Avagacestat + Tozasertib; first compound 0.253 µM) of 0.446, a relative viability (Avagacestat + Tozasertib; first compound 0.8 µM) of 0.456 and a relative viability (Avagacestat + Tozasertib; first compound 2.53 µM) of 0.46. It also gave a relative viability (Avagacestat + Tozasertib; first compound 8 µM) of 0.445, a relative viability (Avagacestat + Dasatinib; first compound 0.08 µM) of 0.525 and a relative viability (Avagacestat + Dasatinib; first compound 0.253 µM) of 0.567. The relative viability (Avagacestat + Dasatinib; first compound 0.8 µM) was 0.575, the relative viability (Avagacestat + Dasatinib; first compound 2.53 µM) was 0.511 and the relative viability (Avagacestat + Dasatinib; first compound 8 µM) was 0.577. The relative viability (Avagacestat + Phenformin; first compound 0.08 µM) was 0.576, the relative viability (Avagacestat + Phenformin; first compound 0.253 µM) was 0.603 and the relative viability (Avagacestat + Phenformin; first compound 0.8 µM) was 0.614. The relative viability (Avagacestat + Phenformin; first compound 2.53 µM) was 0.577 and the relative viability (Avagacestat + Phenformin; first compound 8 µM) was 0.63.

SW 900 was tested, and the relative viability (Avagacestat; 0.08 µM) was 1.07, the relative viability (Avagacestat; 0.253 µM) was 1.04 and the relative viability (Avagacestat; 0.8 µM) was 1.06. The relative viability (Avagacestat; 2.53 µM) was 0.967, the relative viability (Avagacestat; 8 µM) was 0.979 and the relative viability (Avagacestat + Trametinib; first compound 0.08 µM) was 1.08. It also gave a relative viability (Avagacestat + Trametinib; first compound 0.253 µM) of 0.82, a relative viability (Avagacestat + Trametinib; first compound 0.8 µM) of 0.872 and a relative viability (Avagacestat + Trametinib; first compound 2.53 µM) of 0.763. It also gave a relative viability (Avagacestat + Trametinib; first compound 8 µM) of 0.713, a relative viability ([1]; first compound 0.08 µM) of 0.627 and a relative viability ([1]; first compound 0.253 µM) of 0.618. The relative viability ([1]; first compound 0.8 µM) was 0.645, the relative viability ([1]; first compound 2.53 µM) was 0.453 and the relative viability ([1]; first compound 8 µM) was 0.505. It also gave a relative viability (Avagacestat + Luminespib; first compound 0.08 µM) of 0.176, a relative viability (Avagacestat + Luminespib; first compound 0.253 µM) of 0.168 and a relative viability (Avagacestat + Luminespib; first compound 0.8 µM) of 0.173. It also gave a relative viability (Avagacestat + Luminespib; first compound 2.53 µM) of 0.153, a relative viability (Avagacestat + Luminespib; first compound 8 µM) of 0.177 and a relative viability (Avagacestat + Foretinib; first compound 0.08 µM) of 1.38. For the same cell line, the relative viability (Avagacestat + Foretinib; first compound 0.253 µM) was 1.32, the relative viability (Avagacestat + Foretinib; first compound 0.8 µM) was 0.967 and the relative viability (Avagacestat + Foretinib; first compound 2.53 µM) was 0.612. For the same cell line, the relative viability (Avagacestat + Foretinib; first compound 8 µM) was 1.2, the relative viability (Avagacestat + OSI-027; first compound 0.08 µM) was 0.756 and the relative viability (Avagacestat + OSI-027; first compound 0.253 µM) was 0.731. It also gave a relative viability (Avagacestat + OSI-027; first compound 0.8 µM) of 0.581, a relative viability (Avagacestat + OSI-027; first compound 2.53 µM) of 0.573 and a relative viability (Avagacestat + OSI-027; first compound 8 µM) of 0.653. The relative viability (Avagacestat + Tozasertib; first compound 0.08 µM) was 0.726, the relative viability (Avagacestat + Tozasertib; first compound 0.253 µM) was 0.637 and the relative viability (Avagacestat + Tozasertib; first compound 0.8 µM) was 0.578. It also gave a relative viability (Avagacestat + Tozasertib; first compound 2.53 µM) of 0.487, a relative viability (Avagacestat + Tozasertib; first compound 8 µM) of 0.353 and a relative viability (Avagacestat + Dasatinib; first compound 0.08 µM) of 0.821. The relative viability (Avagacestat + Dasatinib; first compound 0.253 µM) was 0.599, the relative viability (Avagacestat + Dasatinib; first compound 0.8 µM) was 0.547 and the relative viability (Avagacestat + Dasatinib; first compound 2.53 µM) was 0.848. The relative viability (Avagacestat + Dasatinib; first compound 8 µM) was 0.558, the relative viability (Avagacestat + Phenformin; first compound 0.08 µM) was 0.781 and the relative viability (Avagacestat + Phenformin; first compound 0.253 µM) was 0.641. For the same cell line, the relative viability (Avagacestat + Phenformin; first compound 0.8 µM) was 0.543, the relative viability (Avagacestat + Phenformin; first compound 2.53 µM) was 0.571 and the relative viability (Avagacestat + Phenformin; first compound 8 µM) was 0.627. For the same cell line, the relative viability (Avagacestat + AZD7762; first compound 0.08 µM) was 0.847, the relative viability (Avagacestat + AZD7762; first compound 0.253 µM) was 0.807 and the relative viability (Avagacestat + AZD7762; first compound 0.8 µM) was 0.606. The relative viability (Avagacestat + AZD7762; first compound 2.53 µM) was 0.571, the relative viability (Avagacestat + AZD7762; first compound 8 µM) was 0.466 and the relative viability (Avagacestat + Pemetrexed; first compound 0.08 µM) was 0.485. The relative viability (Avagacestat + Pemetrexed; first compound 0.253 µM) was 0.507, the relative viability (Avagacestat + Pemetrexed; first compound 0.8 µM) was 0.474 and the relative viability (Avagacestat + Pemetrexed; first compound 2.53 µM) was 0.486. It also gave a relative viability (Avagacestat + Pemetrexed; first compound 8 µM) of 0.482, a relative viability (Avagacestat + Decitabine; first compound 0.08 µM) of 0.376 and a relative viability (Avagacestat + Decitabine; first compound 0.253 µM) of 0.401. It also gave a relative viability (Avagacestat + Decitabine; first compound 0.8 µM) of 0.422, a relative viability (Avagacestat + Decitabine; first compound 2.53 µM) of 0.464 and a relative viability (Avagacestat + Decitabine; first compound 8 µM) of 0.41. For the same cell line, the relative viability (Avagacestat + Vorinostat; first compound 0.08 µM) was 0.502, the relative viability (Avagacestat + Vorinostat; first compound 0.253 µM) was 0.828 and the relative viability (Avagacestat + Vorinostat; first compound 0.8 µM) was 0.554. The relative viability (Avagacestat + Vorinostat; first compound 2.53 µM) was 0.535, the relative viability (Avagacestat + Vorinostat; first compound 8 µM) was 0.641 and the relative viability (Avagacestat + Olaparib; first compound 0.08 µM) was 1.04. It also gave a relative viability (Avagacestat + Olaparib; first compound 0.253 µM) of 0.96, a relative viability (Avagacestat + Olaparib; first compound 0.8 µM) of 0.982 and a relative viability (Avagacestat + Olaparib; first compound 2.53 µM) of 0.634. It also gave a relative viability (Avagacestat + Olaparib; first compound 8 µM) of 0.896.
